In publication PMC6848912 (British Journal of Clinical Pharmacology, 2019):

Tests used:
[1] = Inc. data on file, cited from earlier work
[2] = cited from earlier work
[3] = in combination with carboplatin + paclitaxel; cited from earlier work
[4] = Population pharmacokinetic analysis; assay type: in vivo
[5] = concurrent administration of carboplatin + paclitaxel
[6] = nonparametric bootstrap of final PPK model

For `NS(=O)(=O)OC[C@@H]1C[C@@H](n2ccc3c(N[C@H]4CCc5ccccc54)ncnc32)C[C@@H]1O` [pevonedistat, Pevonedistat], the “renal clearance contribution to total systemic clearance” value ([1]; ref Millennium Pharmaceuticals) is listed as less than 5%, the “renal elimination pathway, share of total plasma clearance” value ([1]; ref Takeda Millennium Pharmaceuticals) is listed as 2.5% and the “dose linearity of PK (AUC from time 0 to 24 hours vs dose)” value ([2]; dose from 25 to 278 mg/m^2) is listed as “linear”. The drug accumulation ([2]; once-daily dosing for 5 consecutive days or intermittent dosing) was “little or no notable drug accumulation”, the “maximum tolerated dose (MTD) / recommended Phase II dose” value [3] was 20 mg/m^2 and the “average increase in pevonedistat exposure (AUC)” value [4, 5] was 79%. The “average increase in pevonedistat exposure (AUC), fold” value [4, 5] was 1.79 fold, the “impact of race, sex, age, tumour type, mild or moderate renal impairment (CrCL ≥30 mL/min), mild hepatic impairment on pevonedistat PK” value ([4]; covariate analysis) was “had no impact on pevonedistat PK” and the “IIV_CL (interindividual variability), typical value” ([4]; final PPK model) was 36.6 %CV. For the same compound, the “IIV_Q, typical value” ([4]; final PPK model) was 60.5 %CV, the “IIV_Vc, typical value” ([4]; final PPK model) was 36.6 %CV and the “IIV_Vp, typical value” ([4]; final PPK model) was 36.9 %CV. For the same compound, the “Albumin on Q (exponent), typical value” ([4]; final PPK model, (ALB/40)^θ13) was 1.45, the “BSA on Q (exponent), typical value” ([4]; final PPK model, set the same as BSA on CL) was 1.33 and the “BSA on Vp (exponent), typical value” ([4]; final PPK model, set the same as BSA on Vc) was 1.39. For the same compound, the “BSA on Vc (exponent), typical value” ([4]; final PPK model, set the same as BSA on Vp) was 1.39, the Vd ([4]; human, plasma, intravenous) was 117 L and the “Albumin on Q, bootstrap median” value [4, 6] was 1.45. The “BSA on Q, bootstrap median” value [4, 6] was 1.33, the “BSA on Vc, bootstrap median” value [4, 6] was 1.39 and the “BSA on Vp, bootstrap median” value [4, 6] was 1.39. For the same compound, the “IIV_CL, bootstrap median” value [4, 6] was 35.9 %CV, the “IIV_Q, bootstrap median” value [4, 6] was 60.2 %CV and the “IIV_Vc, bootstrap median” value [4, 6] was 36.6 %CV. The “IIV_Vp, bootstrap median” value [4, 6] was 36.7 %CV, the “Q, bootstrap median” value [4, 6] was 22 L/h and the “Vc, bootstrap median” value [4, 6] was 115 L. For the same compound, the “Vp, bootstrap median” value [4, 6] was 121 L.
